Source: patent US5866570A, “Treatment of vascular leakage and related syndrome such as septic shock by administration of metalloproteinase inhibitors” (Wisconsin Alumni Research Foundation, priority 1994, dated 1999)

Test system: BALB/C mice
Assay: septic shock induced by galactosamine and endotoxin (E. coli 026:B6)
Assay type: in vivo
Experimental: Ten BALB/C mine were injected i.p. with 18 mg of D-galactosamine and 1 μg of endotoxin. Three units of heparin were given i.v. and 10 units heparin were given subcutaneously at 30 min to prevent intravascular coagulation.
Ten BALB/C mice were treated with razoxane (100 μg/g body weight i.p., dissolved in 1% carboxymethyl-cellulose in normal saline). The mice were then injected i.p. with 18 mg of D-galactosamine and 1 μg of endotoxin. Three units of heparin were given i.v. and 10 units heparin were given subcutaneously to each mice at 30 min.

[1] = galactosamine + endotoxin1 (E. coli 026:B6)

Compound: CC(CN1CC(=O)NC(=O)C1)N1CC(=O)NC(=O)C1 (stereo not shown) [razoxane]
- Survival/Total Ratio after 24 h [1]: 2/10
- Survival/Total Ratio after 48 h [1]: 2/10
- Survival/Total Ratio after 72 h [1]: 2/10
- mice surviving more than 24 h (razoxane 100 μg/g i.p. before 18 mg D-galactosamine + 1 μg endotoxin i.p., heparin): Two out of ten
